Patent publication US10736317B2, “Composition having sex pheromone activity on San Jose scale, and attractant, mating disruptant, attraction method and mating disruption method for San Jose scale” (SHIN-ETSU CHEMICAL CO., LTD., priority 2017, dated 2020)

System: SJS male adult insects
Assay: SJS attraction test (white adhesive trap, orchard)
Assay type: in vivo, Quadraspidiotus perniciosus (San Jose scale)
Conditions: conclusion from trap captures
Description: <Evaluation of Sex Pheromone Activity (SJS Attraction Test)> A white adhesive trap was used for evaluation of the sex pheromone activity. […] An adhesive material was applied over the bottom plate, and the attractant, which is shown as “A” in FIG. 1, was placed directly on the adhesive surface. In other words, it is configured to capture only insects that have approached the attractant, whereby keeping unintentional admission of insects as low as possible. In a period of from Jun. 30 to Oct. 2, 2015, the traps, each having one of the attractants, were placed in an orchard where SJS had inhabited. The number of male adult insects captured in each trap was measured for every 7 days. At every measurement, the installation places of the respective traps were changed by rotation of 13 places in total, in order to minimize the effects of installation environment on the number of capture.

C=C(C)CCCC(C)CCOC(=O)CC (stereo not shown) [3,7-dimethyl-7-octenyl propionate]
sex pheromone activity on the SJS: has a sex pheromone activity on the SJS
